Experimental data taken from patent US11071731B2, “Allosteric modulators of the mu opioid receptor” (Chiromics, LLC, priority 2017, dated 2021).

Columns and labels:
[1] = molecular target: T1, mu opioid receptor (MOR) (Homo sapiens, UniProt P35372); experiment: PathHunter β-arrestin recruitment assay, PAM mode with EC20 endomorphin-1; format: cell-based; details: for EC50: read-out: β-arr. EC50; for inhibition of β-arrestin recruitment at a static concentration of 5 μM: printed in β-arr. EC50 column
T1 sequence (P35372 whole entry): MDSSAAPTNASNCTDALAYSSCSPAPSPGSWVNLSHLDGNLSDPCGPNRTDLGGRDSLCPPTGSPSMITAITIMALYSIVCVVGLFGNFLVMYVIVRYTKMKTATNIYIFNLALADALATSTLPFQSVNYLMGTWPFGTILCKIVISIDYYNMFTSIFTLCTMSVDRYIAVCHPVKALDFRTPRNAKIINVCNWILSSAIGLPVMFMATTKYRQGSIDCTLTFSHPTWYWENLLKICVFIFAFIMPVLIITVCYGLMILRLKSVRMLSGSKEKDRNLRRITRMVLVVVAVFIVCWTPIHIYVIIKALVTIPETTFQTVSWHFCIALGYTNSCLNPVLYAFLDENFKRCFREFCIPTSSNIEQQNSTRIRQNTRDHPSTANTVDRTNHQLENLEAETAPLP
Experimental: The effects of MOR PAMs and MOR SAMs on receptor activity were assayed using the PathHunter enzyme complementation assay technology (DiscoveRx, CA). A description of the technology employed is as follows.
Beta-Arrestin Pathway: The PathHunter β-arrestin assay monitors the activation of a GPCR in a homogenous, non-imaging assay format using a technology developed by DiscoveRx called Enzyme Fragment Complementation (EFC) with beta-galactosidase (β-Gal) as the functional reporter. […] EA is fused to β-Arrestin and ED is fused to the GPCR of interest. When the GPCR is activated and β-arrestin is recruited to the receptor, ED and EA complementation occurs, restoring β-gal activity, which is measured using chemiluminescent PathHunter Detection Reagents.
In this manner an EC50 for each test compound, and percent maximal response for each test compound, were determined for both the β-arrestin and cAMP pathways. Though the pharmacological effects of a given signal bias can be hypothesized (Raehal et al. (2011) Pharmacol. Rev. 63:1001-1019), it is not possible to know with certainty which bias ratio will be most advantageous in a clinical setting. […] Kenakin 2015a, supra. The information associated with the compounds detailed herein is the first large data set available for the prediction of ligand bias for an MOR PAM.

[2] = molecular target: T1, mu opioid receptor (MOR); experiment: Hit Hunter cAMP signaling assay (adenylyl cyclase inhibition), PAM mode with EC20 endomorphin-1; format: cell-based
[3] = maximal response for β-arrestin recruitment
[4] = cAMP EC50, adenylyl cyclase inhibition
[5] = maximal response for adenylyl cyclase inhibition
[6] = adenylyl cyclase inhibition, read-out: cAMP EC50
[7] = maximal response, β-arrestin recruitment
[8] = maximal response, adenylyl cyclase inhibition
[9] = read-out: cAMP EC50, adenylyl cyclase inhibition

Structure (SMILES)	β-arr Max. Resp. [1, 3]	EC50 ([1]; β-arrestin recruitment) [nM]	inhibition of β-arrestin recruitment at a static concentration of 5 μM [1]	other results
Cc1ccc(C(F)(F)F)cc1C1CCCCN1c1nc(Cl)ncc1F (stereo not drawn) [compound 134]	F (F represents a maximal response of > 60%)	> 2100		EC50 [2, 4]: > 2100 nM; cAMP Max. Resp. [2, 5]: D (D represents a maximal response of < 40%)
CC1CCN(S(=O)(=O)c2ccc(Cl)cc2)C1c1cccc(C(F)(F)F)c1 (mixture of isomers) [Compound 89]	F (F represents a maximal response of > 60%)	700 to 2100		EC50 [2, 6]: > 2100 nM; cAMP Max. Resp. [2, 5]: D (D represents a maximal response of < 40%)
Fc1c(Cl)cccc1C1CCCCN1c1ccnc(Cl)n1 (stereo not drawn) [compound 405]	D (D represents a maximal response of < 40%)	< 700		EC50 [2, 4]: < 700 nM; cAMP Max. Resp. [2, 5]: D (D represents a maximal response of < 40%)
Fc1ccc(C2CCCCN2c2nc(Cl)ncc2F)cc1Cl (stereo not drawn) [compound 121]	F (F represents a maximal response of > 60%)	< 700		EC50 [2, 4]: < 700 nM; cAMP Max. Resp. [2, 5]: E (E represents a maximal response of 40-60%)
CCCC1(F)CCCN(c2nc(Cl)ncc2F)C1c1cccc(C(F)(F)F)c1 (stereo not drawn) [compound 424]		> 2100		β-arr Max. Resp. [1, 7]: F (F represents a maximal response of > 60%); EC50 [2, 6]: > 2100 nM; cAMP Max. Resp. [2, 8]: D (D represents a maximal response of < 40%)
Cc1ccc(C2CCCCN2c2nc(Cl)ncc2F)cc1Br (stereo not drawn) [compound 281]	F (F represents a maximal response of > 60%)	700 to 2100		EC50 [2, 4]: < 700 nM; cAMP Max. Resp. [2, 5]: D (D represents a maximal response of < 40%)
COc1ccc(C2CCCCN2c2ccc(C(F)(F)F)cn2)cc1Br (stereo not drawn) [compound 232]	F (F represents a maximal response of > 60%)	> 2100		EC50 [2, 4]: > 2100 nM; cAMP Max. Resp. [2, 5]: F (F represents a maximal response of > 60%)
Cc1nccc(N2CCCCC2c2ccc(F)c(Cl)c2)n1 (stereo not drawn) [compound 480]		> 2100		β-arr Max. Resp. [1, 7]: D (D represents a maximal response of < 40%); EC50 [2, 4]: > 2100 nM; cAMP Max. Resp. [2, 8]: D (D represents a maximal response of < 40%)
Fc1ncc(F)c(N2CCCCC2c2cccc(C(F)(F)F)c2)n1 (stereo not drawn) [compound 368]	D (D represents a maximal response of < 40%)	< 700		EC50 [2, 4]: < 700 nM; cAMP Max. Resp. [2, 5]: D (D represents a maximal response of < 40%)
[N-]=[N+]=Nc1cccc(C2CCCCN2Cc2cc(Cl)ccc2F)n1 (stereo not drawn) [compound 144]	E (E represents a maximal response of 40-60%)	> 2100		EC50 [2, 4]: > 2100 nM; cAMP Max. Resp. [2, 5]: D (D represents a maximal response of < 40%)
Fc1cnc(Cl)nc1N1CCCCC1c1cncc(C(F)(F)F)n1 (stereo not drawn) [compound 274]	F (F represents a maximal response of > 60%)	> 2100		EC50 [2, 4]: 700 to 2100 nM; cAMP Max. Resp. [2, 5]: D (D represents a maximal response of < 40%)
CN(C)c1ncc(F)c(N2CCCCC2c2cccc(F)n2)n1 (stereo not drawn) [compound 242]	D (D represents a maximal response of < 40%)	> 2100		EC50 [2, 4]: > 2100 nM; cAMP Max. Resp. [2, 5]: D (D represents a maximal response of < 40%)
Fc1cnc(Cl)nc1N1CCCC(F)C1c1cccc(C(F)(F)F)c1 (single isomer, unassigned) [compound 209]				EC50 [2, 9]: 700 to 2100 nM
COc1ccc(C2CCCCN2S(=O)(=O)c2ccc(Cl)cc2)cc1Br (racemic) [compound 4]	F (F represents a maximal response of > 60%)	> 2100		
COc1ccc(C2CC(F)CN2S(=O)(=O)c2ccc(Cl)cc2)cc1Br (single isomer, unassigned) [Compound 112]			G (G represents < 50% inhibition of β-arrestin recruitment at a static concentration of 5 μM, for compounds that were not tested for adenylyl cyclase inhibition)	
[2H]C1(c2ccc(F)c(Br)c2)C(F)CCCN1S(=O)(=O)c1ccc2ccccc2c1 (stereo not drawn) [Compound 31]			G (G represents < 50% inhibition of β-arrestin recruitment at a static concentration of 5 μM, for compounds that were not tested for adenylyl cyclase inhibition)	
Fc1cnc(Cl)nc1N1CCCC(F)C1c1cccc(C(F)(F)F)c1 (single isomer, unassigned) [compound 208]				EC50 [2, 9]: 700 to 2100 nM
[2H]C1(c2ccc(F)c(Br)c2)C(F)CCCN1S(=O)(=O)Cc1ccccc1 (stereo not drawn) [Compound 35]			G (G represents < 50% inhibition of β-arrestin recruitment at a static concentration of 5 μM, for compounds that were not tested for adenylyl cyclase inhibition)	

Structure (SMILES)	β-arr Max. Resp. [1, 3]	EC50 ([1]; β-arrestin recruitment) [nM]	inhibition of β-arrestin recruitment at a static concentration of 5 μM [1]	other results
COc1ccc(C2CC(F)CN2S(=O)(=O)c2ccc(Cl)cc2)cc1Br (single isomer, unassigned) [Compound 114]	D (D represents a maximal response of < 40%)	> 2100		
[2H]C1(c2ccc(F)c(Br)c2)C(F)CCCN1S(=O)(=O)Cc1ccc(Cl)c(Cl)c1 (stereo not drawn) [Compound 34]			G (G represents < 50% inhibition of β-arrestin recruitment at a static concentration of 5 μM, for compounds that were not tested for adenylyl cyclase inhibition)	
COc1ccc(C2C(F)CCN2S(=O)(=O)c2ccc(Cl)cc2)cc1Br (stereo not drawn) [Compound 115]	E (E represents a maximal response of 40-60%)	> 2100		
O=S(=O)(c1ccc2ccccc2c1)N1CCCCC1c1cccc(C(F)(F)F)c1 (stereo not drawn) [Compound 20]			G (G represents < 50% inhibition of β-arrestin recruitment at a static concentration of 5 μM, for compounds that were not tested for adenylyl cyclase inhibition)	
[2H]C1(c2ccc(F)c(Br)c2)C(F)CCCN1S(=O)(=O)c1ccc(OC)cc1 (stereo not drawn) [Compound 39]			G (G represents < 50% inhibition of β-arrestin recruitment at a static concentration of 5 μM, for compounds that were not tested for adenylyl cyclase inhibition)	
COc1ccc(C2N(S(=O)(=O)c3ccc(Cl)cc3)CCC2(F)F)cc1Br (stereo not drawn) [Compound 113]	F (F represents a maximal response of > 60%)	> 2100		
COc1ccc(C2CC(C(F)(F)F)CN2S(=O)(=O)c2ccc(Cl)cc2)cc1Br (single isomer, unassigned) [Compound 111]	F (F represents a maximal response of > 60%)	> 2100		
COc1ccc(C2N(S(=O)(=O)c3ccc(Cl)cc3)CCC2(F)F)cc1Br (single isomer, unassigned) [Compound 116]	F (F represents a maximal response of > 60%)	> 2100		
COc1ccc(C2CCCN2S(=O)(=O)c2ccc(Cl)cc2)cc1Br (stereo not drawn) [compound 41]	F (F represents a maximal response of > 60%)	> 2100		
COc1ccc(C2CCN2S(=O)(=O)c2ccc(Cl)cc2)cc1Br (stereo not drawn) [compound 40]	D (D represents a maximal response of < 40%)	> 2100		
FC(F)(F)c1cccc(C2CCCCN2Cc2ccc(Cl)cc2)c1 (stereo not drawn) [compound 140]			G (G represents < 50% inhibition of β-arrestin recruitment at a static concentration of 5 μM, for compounds that were not tested for adenylyl cyclase inhibition)	
[2H]C1(c2ccc(F)c(Br)c2)C(F)CCCN1S(=O)(=O)c1ccccc1 (stereo not drawn) [Compound 30]			G (G represents < 50% inhibition of β-arrestin recruitment at a static concentration of 5 μM, for compounds that were not tested for adenylyl cyclase inhibition)	
O=S(=O)(c1ccccc1)N1CCCCC1c1cccc(C(F)(F)F)c1 (stereo not drawn) [Compound 19]			G (G represents < 50% inhibition of β-arrestin recruitment at a static concentration of 5 μM, for compounds that were not tested for adenylyl cyclase inhibition)	
COc1ccc(C2C(C(F)(F)F)CCN2S(=O)(=O)c2ccc(Cl)cc2)cc1Br (single isomer, unassigned) [Compound 117]	F (F represents a maximal response of > 60%)	> 2100		
O=S(=O)(c1ccc(Cl)cc1)N1CCCCC1c1ccccn1 (stereo not drawn) [compound 45]			G (G represents < 50% inhibition of β-arrestin recruitment at a static concentration of 5 μM, for compounds that were not tested for adenylyl cyclase inhibition)	
N#Cc1cccc(C2CCCCN2S(=O)(=O)c2ccc(Cl)cc2)n1 (stereo not drawn) [compound 47]			G (G represents < 50% inhibition of β-arrestin recruitment at a static concentration of 5 μM, for compounds that were not tested for adenylyl cyclase inhibition)	
[2H]C1(c2ccc(F)c(Br)c2)C(F)CCCN1S(=O)(=O)Cc1ccccc1Cl (stereo not drawn) [Compound 36]			G (G represents < 50% inhibition of β-arrestin recruitment at a static concentration of 5 μM, for compounds that were not tested for adenylyl cyclase inhibition)	
Cc1cccc(C2CCCCN2S(=O)(=O)c2ccc(Cl)cc2)n1 (stereo not drawn) [compound 46]			G (G represents < 50% inhibition of β-arrestin recruitment at a static concentration of 5 μM, for compounds that were not tested for adenylyl cyclase inhibition)	
